Measured values reported in PubChem BioAssay (NCI).
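48-hour exposure; five concentrations; linearly interpolated endpoints. GI50 = concentration required for 50% inhibition of growth. TGI: concentration producing complete growth inhibition.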

What was measured:
Test in all cases: NCI tumour cell line growth inhibition, 48 h
[1] = system: XF 498 CNS
[2] = system: SN12K1 renal
[3] = system: P388/ADR leukemia
[4] = system: P388 leukemia
[5] = system: HS 578T breast
[6] = system: LXFL 529 NSCLC
[7] = system: 786-0 renal

SMILES | TGI [1] | TGI [2] | TGI [3] | TGI [4] | TGI [5] | further results
CC(=O)NC1=C[C@@H]([C@H]2COC(C)(C)O2)OC1=O | > 100000 nM | > 100000 nM | > 100000 nM | > 100000 nM |  | 
O=C(Nc1ccc(-n2ccc3c(NC(=O)c4ccccc4)ncnc32)cc1)Nc1cccc(Cl)c1Cl |  |  |  |  | 2600 nM | GI50 [5]: 856 nM
C=C(OC1C(C)=C2C(C1OC(=O)CCCCCCC)C(C)(OC(C)=O)CC(OC(=O)CCC)C1(O)C2OC(=O)C1(C)O)/C(C)=C/C (stereo not drawn) | 8970 nM | 78.6 nM | 1840 nM | 993 nM |  | 
CCOC(=O)CC1(c2cccc3ccccc23)OC(=O)c2ccccc21 (stereo not drawn) |  |  |  |  |  | TGI [6]: > 100000 nM
O=C(O)/C(Cc1ccc([N+](=O)[O-])cc1)=N\O |  |  |  |  | > 100000 nM | TGI [7]: > 100000 nM
